Assay results from US20230183703A1, “COMPOSITIONS AND METHODS FOR TREATING AND DETECTING CORONAVIRUS INFECTION” (HOWARD UNIVERSITY, priority 2020, published 2023).

Test system: SARS-CoV-2
Type: cell-based
Conditions: result in words

| Substance | inhibition of SARS-CoV-2 proliferation in Vero-76 cells |
| --- | --- |
| A25L: SEQ ID NO: 2: 10-nucleotide linker GGAGAATGAC sandwiched between two copies of a 25-mer poly(dA) sequence (DNA AAAAAAAAAAAAAAAAAAAAAAAAAGGAGAATGACAAAAAAAAAAAAAAAAAAAAAAAAA; further chemistry not given here) | markedly inhibited |
| A25: 5′-GGAGAATGACA(25)-3′, SEQ ID NO: 1: 10-nucleotide linker attached to 5′-end of a 25-mer poly(dA) sequence (DNA GGAGAATGACAAAAAAAAAAAAAAAAAAAAAAAAA; further chemistry not given here) | markedly inhibited |
